According to patent US20060251638A1, “Cytoprotection through the use of hif hydroxylase inhibitors” (priority 2003, published 2006):

Experiments:
[1] = tested on: gene encoding adrenomedullin; assay: Adrenomedullin gene expression in Hep3B cells (microarray); assay type: cell-based, human; conditions: 25 μM compound, 6 hrs, average of two determinations
Procedure: Hep3B cells (ATCC No. HB-8064) were grown in DMEM containing 8% fetal bovine serum. Hep3B cells were seeded into 6-well culture dishes at ˜500,000 cells per well. After 8 hours, the media was changed to DMEM containing 0.5% fetal bovine serum and the cells were incubated for an additional 16 hours. Compound A, compound B, compound C, compound G, or compound H was added to the cells (25 μM final concentration) and the cells were incubated for various times. Control cells were incubated with vehicle (DMSO) with no compound treatment. Harvested cells were assessed for cell viability (GUAVA), or added to RNA extraction buffer (RNeasy, Qiagen) and stored at −20° C. for subsequent RNA purification.
RNA was precipitated in 0.3 M sodium acetate (pH 5.2), 50 ng/ml glycogen, and 2.5 volumes of ethanol for one hour at −20° C. Samples were centrifuged and pellets were washed with cold 80% ethanol, dried, and resuspend in water. Double stranded cDNA was synthesized using a T7-(dT)24 first strand primer (Affymetrix, Inc., Santa Clara Calif.) and the SUPERSCRIPT CHOICE system (Invitrogen) according to the manufacturer's instructions. The final cDNA was extracted with an equal volume of 25:24:1 phenol:chloroform:isoamyl alcohol using a PHASE LOCK GEL insert (Brinkman, Inc., Westbury N.Y.). The aqueous phase was collected and cDNA was precipitated using 0.5 volumes of 7.5 M ammonium acetate and 2.5 volumes of ethanol. Alternatively, cDNA was purified using the GENECHIP sample cleanup module (Affymetrix) according to the manufacturer's instructions.
Biotin-labeled cRNA was synthesized from the cDNA in an in vitro […] (IVT) reaction using a BIOARRAY HighYield RNA transcript labeling kit (Enzo Diagnostics, Inc., Farmingdale N.Y.) according to the manufacturer's instructions. Final labeled product was purified and fragmented using the GENECHIP sample cleanup module (Affymetrix) according to the manufacturer's instructions.
Hybridization cocktail was prepared by bringing 5 μg probe to 100 μl in 1× hybridization buffer (100 mM MES, 1 M [Na^+], 20 mM EDTA, 0.01% Tween 20), 100 μg/ml herring sperm DNA, 500 μg/ml acetylated BSA, 0.03 nM contol oligo B2 (Affymetrix), and 1× GENECHIP eukaryotic hybridization control (Affymetrix). The cocktail was sequentially incubated at 99° C. for 5 minutes and 45° C. for 5 minutes, and then centrifuged for 5 minutes. The […] array (Affymetrix) was brought to room temperature and then prehybridized with 1× hybridization buffer at 45° C. for 10 minutes with rotation. The buffer was then replaced with 80 μl hybridization cocktail and the array was hybridized for 16 hours at 45° C. at 60 rpm with counter balance. Following hybridization, arrays were washed once with 6×SSPE, 0.1% Tween 20, and then washed and stained using R-phycoerythrin-conjugated streptavidin (Molecular Probes, Eugene Oreg.), goat anti-streptavidin antibody (Vector Laboratories, Burlingame Calif.), and a GENECHIP Fluidics Station 400 instrument (Affymetrix) according to the manufacturer's EukGE-WS2v4 protocol (Affymetrix). Arrays were analyzed using a GENEARRAY scanner (Affymetrix) and Microarray Suite software (Affymetrix).
RNA quality was monitored by capillary electrophoresis (Agilent Bioanalyzer). […] Array performance was analyzed with Affymetrix MicroArray Suite (MAS) software and individual probe sets were assigned “present”, “marginal, and “absent” calls according to software defaults. […]

[2] = tested on: H9c2 rat cardiomyocytes; assay: Intracellular ATP levels in H9c2 cardiomyocytes after oxygen and glucose deprivation (glucose-free DMEM, 2 mM KCN); assay type: cell-based; conditions: H9c2, 20 μM pretreatment 24 hours, glucose-free DMEM and 2 mM KCN for 30 minutes; vehicle control 415
Procedure: In similar experiments, H9c2 rat cardiomyocytes were pretreated with either vehicle control (0.5% DMSO) or 20 μM of Compound A, Compound B, Compound C, Compound D, Compound E, Compound F, Compound G, or compound H. After 24 hours, cells were washed with serum-free DMEM and subjected to oxygen and glucose deprivation by incubating the cells in glucose-free DMEM and 2 mM KCN for 30 minutes. Intracellular ATP levels were then determined.

[3] = tested on: adrenomedullin gene expression; assay: Adrenomedullin gene expression in H9c2 cardiomyocytes with or without KCN challenge; assay type: cell-based, rat; conditions: H9c2, 10 μM compound 24 hours
Procedure: Adrenomedullin gene expression was also examined in cardiomyocytes treated with compound and subsequently challenged with KCN, an inhibitor of oxidative glucose metabolism. H9c2 rat cardiomyocytes were cultured in 96-well tissue culture plates (approximately 20,000 cells per well) in DMEM containing 10% fetal bovine serum. Media was changed to DMEM containing 0.5% fetal bovine serum, and the cells were treated with 10 μM compound C or compound D for 24 hours. Media was then replaced with glucose-free DMEM (Gibco/Invitrogen Cat. # 11966-025) containing 2 mM KCN (Sigma-Aldrich Cat. No. 207810). Results of adrenomedullin gene expression, presented as fold-increase in gene expression above DMSO control, are shown below in Table 2.

[4] = tested on: HO-1 protein; assay: HO-1 protein levels in H9c2 cardiomyocytes by ELISA; assay type: cell-based, rat; conditions: H9c2, 100 μM compound; control 2.86
Procedure: In another series of experiments, H9c2 rat cardiomyocytes were treated with either vehicle control or with various concentrations (1 μM, 3 μM, 10 μM, 30 μM, and 100 μM) of compound C or compound G. Cell lysates were harvested and HO-1 protein levels determined by ELISA according to the manufacturer's instructions (cat # EKS-810; Stressgen, Victoria, BC, Canada). Data shown below in Table 4 represents values obtain with 100 μM compound.

[5] = tested on: gene encoding HSP70-3; assay: HSP70-3 mRNA levels in mouse tissues after oral dosing (microarray); assay type: in vivo
Procedure: Twelve Swiss Webster male mice (30-32 g) were obtained from Simonsen, Inc (Gilroy, Calif.) and treated by oral gavage two times per day for 2.5 days (5 doses) with a 4 ml/kg volume of either 0.5% carboxymethyl cellulose (CMC; Sigma-Aldrich, St. Louis Mo.) (0 mg/kg/day) or 2.5% compound H (25 mg/ml in 0.5% CMC) (200 mg/kg/day). Four hours after the final dose, the mice were then sacrificed and approximately 150 mg of liver and each kidney were isolated and stored in RNALATER solution (Ambion) at −20° C.
To determine gene induction patterns over time, twenty four Swiss Webster male mice (30-32 g) were obtained from Simonsen, Inc. and treated by oral gavage with a 4 ml/kg volume of either 0.5% carboxymethyl cellulose (CMC; Sigma-Aldrich, St. Louis Mo.) (0 mg/kg) or […] compound H (25 mg/ml in 0.5% CMC) (100 mg/kg). At 4, 8, 16, 24, 48, or 72 hours after the final dose, animals were anesthetized with isoflurane. The mice were then sacrificed and tissue samples of kidney, liver, brain, lung, and heart were isolated and stored in RNALATER solution (Ambion) at −80° C. RNA isolation and gene expression analysis were performed as described below.
RNA isolation was carried out using the following protocol. A section of each organ was diced, 875 μl of RLT buffer (RNEASY kit; Qiagen Inc., Valencia Calif.) was added, and the pieces were homogenized for about 20 seconds using a rotor-stator POLYTRON homogenizer (Kinematica, Inc., Cincinnati Ohio). […] The RNA was eluted into […] of water and quantitated with RIBOGREEN reagent (Molecular Probes, Eugene Oreg.). The absorbance at 260 and 280 nm was measured to determine RNA purity and concentration.
Alternatively, tissue samples were diced and homogenized in TRIZOL reagent (Invitrogen Life Technologies, Carlsbad Calif.) using a rotor-stator POLYTRON homogenizer (Kinematica). […] The absorbance at 260 and 280 nm was measured to determine RNA purity and concentration. […]

[6] = then glucose-free DMEM with 2 mM KCN
[7] = Animal Study III: mice, oral gavage, 100 mg/kg

## O=C(O)c1c[nH]c2c(ccc3cccnc32)c1=O [Compound A, 4-Oxo-1,4-dihydro-[1,10]phenanthroline-3-carboxylic acid]
[1]
  Adrenomedullin gene expression, fold-increase above non-treated control: 3.582 fold
[2]
  ATP (relative light units): 968.5 relative light units

## COc1ccc(CCN(CCC(=O)NO)S(=O)(=O)c2ccc(NC(=O)N(Cc3ccccc3)Cc3ccccc3)cc2)cc1 [Compound B, 3-{[4-(3,3-Dibenzyl-ureido)-benzenesulfonyl]-[2-(4-methoxy-phenyl)-ethyl]-amino}-N-hydroxy-propionamide]
[1]
  Adrenomedullin gene expression, fold-increase above non-treated control: 8.334 fold
[2]
  ATP (relative light units): 683.5 relative light units

## O=C(O)CNC(=O)c1ncc2cc(Sc3ccccc3)ccc2c1O [Compound C, [(4-Hydroxy-7-phenylsulfanyl-isoquinoline-3-carbonyl)-amino]-acetic acid]
[3]; no KCN
  Adm gene expression, fold-increase above DMSO control: 4.8 fold
[3]; [6]
  Adm gene expression, fold-increase above DMSO control: 7.9 fold
[1]
  Adrenomedullin gene expression, fold-increase above non-treated control: 3.896 fold
[4]
  HO-1 (ng/mg total cell protein): 102.68 ng/mg total cell protein
[2]
  ATP (relative light units): 3710 relative light units

## O=C(O)CNC(=O)c1ncc2ccc(Sc3ccccc3)cc2c1O [Compound D, [(4-Hydroxy-6-phenylsulfanyl-isoquinoline-3-carbonyl)-amino]-acetic acid]
[3]; no KCN
  Adm gene expression, fold-increase above DMSO control: 2.2 fold
[3]; [6]
  Adm gene expression, fold-increase above DMSO control: 4.2 fold
[2]
  ATP (relative light units): 859.5 relative light units

## O=C(O)CNC(=O)c1nc(Cl)c2cc(Oc3ccccc3)ccc2c1O [Compound E, [(1-Chloro-4-hydroxy-7-phenoxy-isoquinoline-3-carbonyl)-amino]-acetic acid]
[2]
  ATP (relative light units): 2043 relative light units

## O=C(O)CNC(=O)c1nc(Br)c2cc(Oc3ccccc3)ccc2c1O [Compound F, [(1-Bromo-4-hydroxy-7-phenoxy-isoquinoline-3-carbonyl)-amino]-acetic acid]
[2]
  ATP (relative light units): 1134 relative light units

## O=C(O)CNC(=O)c1nc(Cl)c2ccccc2c1O [Compound H, [(1-Chloro-4-hydroxy-isoquinoline-3-carbonyl)-amino]-acetic acid]
[1]
  Adrenomedullin gene expression, fold-increase above non-treated control: 1.298 fold
[2]
  ATP (relative light units): 947 relative light units
[5]; Animal Study I: mice, oral gavage two times per day for 2.5 days, 200 mg/kg/day, four hours after final dose
  HSP70-3 mRNA Levels Liver: 2.77
[5]; [7]
  HSP70-3 mRNA Levels Liver: 1.441
  HSP70-3 mRNA Levels Lung: 3.0
